Results: US20170190671A1, “BIS(ARYL)CATECHOL DERIVATIVES AS HERBICIDES” (E I DU PONT DE NEMOURS AND COMPANY, priority 2014, published 2017)

Legend:
Assay in all cases: Test C preemergence
Assay type in all cases: in vivo
[1] = system: barnyardgrass (Echinochloa crus-galli); conditions: Echinochloa crus-galli, pre-emergence, read-out: Plant response rating, Barnyardgrass
Method in brief: (§1)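 Seeded loam-sand soil (preemergence) or young potted plants of 2-18 cm (postemergence) received test chemical formulated with surfactant in a non-phytotoxic solvent. Pots were kept in the greenhouse for 13-15 days before a visual 0-100 control rating relative to controls.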

[2] = system: oilseed rape (Brassica napus); conditions: Brassica napus, pre-emergence, scale 0 to 100, read-out: Plant response rating, Oilseed Rape
Method in brief: as §1

[3] = system: waterhemp (common waterhemp, Amaranthus rudis); conditions: Amaranthus tuberculatus, pre-emergence, scale 0 to 100, read-out: Plant response rating, Waterhemp
Method in brief: as §1

corn (Zea mays) = conditions: Zea mays, pre-emergence, 336 h, scale 0 to 100
Method in brief: as §1

[4] = system: lambsquarters (Chenopodium album); conditions: Chenopodium album, pre-emergence, 336 h, scale 0 to 100, read-out: Plant response rating, Lambsquarters
Method in brief: as §1

[5] = system: johnsongrass (Sorghum halepense); conditions: Sorghum halepense, pre-emergence, 336 h, scale 0 to 100, read-out: Plant response rating, Johnsongrass
Method in brief: as §1

[6] = system: morningglory (Ipomoea coccinea); conditions: Ipomoea, pre-emergence, 336 h, scale 0 to 100, read-out: Plant response rating, Morningglory
Method in brief: as §1

[7] = system: winter wheat (Triticum aestivum); conditions: Triticum aestivum, pre-emergence, 336 h, scale 0 to 100, read-out: Plant response rating, Wheat
Method in brief: as §1

soybean (Glycine max) = conditions: Glycine max, pre-emergence, scale 0 to 100, read-out: Plant response rating, Soybean
Method in brief: as §1

[8] = system: velvetleaf (Abutilon theophrasti); conditions: Abutilon theophrasti, pre-emergence, scale 0 to 100, read-out: Plant response rating, Velvetleaf
Method in brief: as §1

[9] = system: giant foxtail (Setaria faberii); conditions: Setaria faberi, pre-emergence, 336 h, scale 0 to 100, read-out: Plant response rating, Foxtail, Giant
Method in brief: as §1

[10] = system: yellow nutsedge (Cyperus esculentus); conditions: Cyperus, pre-emergence, 336 h, scale 0 to 100, read-out: Plant response rating, Nutsedge, Yellow
Method in brief: as §1

[11] = system: large (Lg) crabgrass (Digitaria sanguinalis); conditions: Digitaria sanguinalis, pre-emergence, 336 h, scale 0 to 100, read-out: Plant response rating, Crabgrass, Large
Method in brief: as §1

[12] = system: pigweed (Amaranthus retroflexus); conditions: Amaranthus retroflexus, pre-emergence, 336 h, scale 0 to 100, read-out: Plant response rating, Pigweed
Method in brief: as §1

[13] = system: Italian ryegrass (Lolium multiflorum); conditions: Lolium multiflorum, pre-emergence, 336 h, scale 0 to 100, read-out: Plant response rating, Ryegrass, Italian
Method in brief: as §1

[14] = system: blackgrass (Alopecurus myosuroides); conditions: Alopecurus myosuroides, pre-emergence, 336 h, scale 0 to 100, read-out: Plant response rating, Blackgrass
Method in brief: as §1

SMILES: Clc1cnc(Oc2cccc(Br)c2Oc2ncc(Cl)cn2)nc1 [Compound 19, 2,2′-[[3-bromo-1,2-phenylene]bis(oxy)]bis[5-chloropyrimidine]]
- pest or weed control at 31 g/ha ([1]; 31 g ai/ha, preemergence, scale 0 to 100): 55%
- pest or weed control at 62 g/ha ([1]; 62 g ai/ha, preemergence, scale 0 to 100): 100%
- pest or weed control at 125 g/ha ([1]; 125 g ai/ha, preemergence, scale 0 to 100): 100%
- pest or weed control at 16 g/ha ([1]; Preemergence, 16 g ai/ha, scale 0 to 100 (0 no effect, 100 complete control)): 15%
- plant injury at 31 g/ha ([2]; 31 g ai/ha, preemergence): 85%
- plant injury at 62 g/ha ([2]; 62 g ai/ha, preemergence): 98%
- plant injury at 125 g/ha ([2]; 125 g ai/ha, preemergence): 100%
- plant injury at 16 g/ha ([2]; Preemergence, 16 g ai/ha): 30%
- pest or weed control at 31 g/ha ([3]; 31 g ai/ha, preemergence): 100%
- pest or weed control at 62 g/ha ([3]; 62 g ai/ha, preemergence): 100%
- pest or weed control at 125 g/ha ([3]; 125 g ai/ha, preemergence): 100%
- pest or weed control at 16 g/ha ([3]; Preemergence, 16 g ai/ha): 100%
- Corn plant response rating (crop injury, 0 = no effect, 100 = complete kill) at 31 g/ha (corn (Zea mays); 31 g ai/ha, preemergence): 25%
- Corn plant response rating (crop injury, 0 = no effect, 100 = complete kill) at 62 g/ha (corn (Zea mays); 62 g ai/ha, preemergence): 80%
- Corn plant response rating (crop injury, 0 = no effect, 100 = complete kill) at 125 g/ha (corn (Zea mays); 125 g ai/ha, preemergence): 90%
- Corn plant response rating (crop injury, 0 = no effect, 100 = complete kill) at 16 g/ha (corn (Zea mays); Preemergence, 16 g ai/ha): 5%
- pest or weed control at 31 g/ha ([4]; 31 g ai/ha, preemergence): 100%
- pest or weed control at 62 g/ha ([4]; 62 g ai/ha, preemergence): 100%
- pest or weed control at 125 g/ha ([4]; 125 g ai/ha, preemergence): 100%
- pest or weed control at 16 g/ha ([4]; Preemergence, 16 g ai/ha): 98%
- pest or weed control at 31 g/ha ([5]; 31 g ai/ha, preemergence): 50%
- pest or weed control at 62 g/ha ([5]; 62 g ai/ha, preemergence): 85%
- pest or weed control at 125 g/ha ([5]; 125 g ai/ha, preemergence): 98%
- pest or weed control at 16 g/ha ([5]; Preemergence, 16 g ai/ha): 35%
- pest or weed control at 31 g/ha ([6]; 31 g ai/ha, preemergence): 45%
- pest or weed control at 62 g/ha ([6]; 62 g ai/ha, preemergence): 90%
- pest or weed control at 125 g/ha ([6]; 125 g ai/ha, preemergence): 100%
- pest or weed control at 16 g/ha ([6]; Preemergence, 16 g ai/ha): 5%
- plant injury at 31 g/ha ([7]; 31 g ai/ha, preemergence): 25%
- plant injury at 62 g/ha ([7]; 62 g ai/ha, preemergence): 40%
- plant injury at 125 g/ha ([7]; 125 g ai/ha, preemergence): 85%
- plant injury at 16 g/ha ([7]; Preemergence, 16 g ai/ha): 0%
- plant injury at 31 g/ha (soybean (Glycine max); 31 g ai/ha, preemergence): 50%
- plant injury at 62 g/ha (soybean (Glycine max); 62 g ai/ha, preemergence): 90%
- plant injury at 125 g/ha (soybean (Glycine max); 125 g ai/ha, preemergence): 80%
- plant injury at 16 g/ha (soybean (Glycine max); Preemergence, 16 g ai/ha): 25%
- pest or weed control at 31 g/ha ([8]; 31 g ai/ha, preemergence): 98%
- pest or weed control at 62 g/ha ([8]; 62 g ai/ha, preemergence): 100%
- pest or weed control at 125 g/ha ([8]; 125 g ai/ha, preemergence): 100%
- pest or weed control at 16 g/ha ([8]; Preemergence, 16 g ai/ha): 60%
- pest or weed control at 31 g/ha ([9]; 31 g ai/ha, preemergence): 100%
- pest or weed control at 62 g/ha ([9]; 62 g ai/ha, preemergence): 100%
- pest or weed control at 125 g/ha ([9]; 125 g ai/ha, preemergence): 100%
- pest or weed control at 16 g/ha ([9]; Preemergence, 16 g ai/ha): 60%
- pest or weed control at 31 g/ha ([10]; 31 g ai/ha, preemergence): 5%
- pest or weed control at 62 g/ha ([10]; 62 g ai/ha, preemergence): 20%
- pest or weed control at 125 g/ha ([10]; 125 g ai/ha, preemergence): 55%
- pest or weed control at 16 g/ha ([10]; Preemergence, 16 g ai/ha): 0%
- pest or weed control at 31 g/ha ([11]; 31 g ai/ha, preemergence): 100%
- pest or weed control at 62 g/ha ([11]; 62 g ai/ha, preemergence): 100%
- pest or weed control at 125 g/ha ([11]; 125 g ai/ha, preemergence): 100%
- pest or weed control at 16 g/ha ([11]; Preemergence, 16 g ai/ha): 98%
- pest or weed control at 31 g/ha ([12]; 31 g ai/ha, preemergence): 100%
- pest or weed control at 62 g/ha ([12]; 62 g ai/ha, preemergence): 100%
- pest or weed control at 125 g/ha ([12]; 125 g ai/ha, preemergence): 100%
- pest or weed control at 16 g/ha ([12]; Preemergence, 16 g ai/ha): 100%
- pest or weed control at 31 g/ha ([13]; 31 g ai/ha, preemergence): 50%
- pest or weed control at 62 g/ha ([13]; 62 g ai/ha, preemergence): 70%
- pest or weed control at 125 g/ha ([13]; 125 g ai/ha, preemergence): 90%
- pest or weed control at 16 g/ha ([13]; Preemergence, 16 g ai/ha): 5%
- pest or weed control at 31 g/ha ([14]; 31 g ai/ha, preemergence): 40%
- pest or weed control at 62 g/ha ([14]; 62 g ai/ha, preemergence): 90%
- pest or weed control at 125 g/ha ([14]; 125 g ai/ha, preemergence): 95%
- pest or weed control at 16 g/ha ([14]; Preemergence, 16 g ai/ha): 30%
